Experimental findings from patent US20240059691A1 (KALVISTA PHARMACEUTICALS LIMITED, priority 2020, published 2024) are described below.

Holding throughout (assay type): biochemical
The target in one assay is Human Factor XIIa (Homo sapiens (Human), UniProt P00748). In words: Determination of FXIIa inhibition (fluorogenic substrate H-DPro-Phe-Arg-AFC, IC50 assay). Conditions: substrate H-DPro-Phe-Arg-AFC at Km, 25° C.; class scale A-G. An outline of the steps:
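Human FXIIa incubated at 25° C with fluorogenic substrate H-DPro-Phe-Arg-AFC at its Km concentration and varying compound concentrations. Fluorescence release monitored over 5 min at 25° C; linear rate expressed as % of uninhibited activity to derive IC50.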

A further assay addresses Plasma Kallikrein (Homo sapiens (Human), UniProt P03952). Briefly: Determination of related protease inhibition: Plasma Kallikrein (fluorogenic substrate at Km). Conditions: 25° C., read-out: IC50 (human PKal). An outline of the steps:
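The enzyme from human source is assayed in the presence of various test compound concentrations, with substrate held at its Km. Accumulating fluorescence is tracked for 5 min at 25 °C, and the concentration halving uninhibited activity is reported as IC50.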

The next assay deals with KLK1 (Homo sapiens (Human), UniProt P06870). Briefly: Determination of related protease inhibition: KLK1 (fluorogenic substrate at Km). Conditions: 25° C. The procedure:
(§1) Determination of Related Protease Inhibition
(§2) In vitro inhibition of related proteases was determined using an ([…] assay based on standard literature methods (see e.g. Shori et al., Biochem. Pharmacol., 1992, 43, 1209; Bouckaert et al., European Journal of Medicinal Chemistry 110 (2016) 181). Human serine protease enzymes Plasma Kallikrein, KLK1, FXa, Plasmin, Thrombin and Trypsin were assayed for enzymatic activity using an appropriate fluorogenic substrate at Km concentration, FXIa at fixed substrate concentration of 100 μM, and various concentrations of the test compound. Protease activity was measured by monitoring the accumulation of liberated fluorescence from the substrate over […]. The linear rate of fluorescence increase per minute was expressed as percentage (%) activity. IC50 values were calculated as the concentration of inhibitor giving 50% inhibition of the uninhibited enzyme activity (100%).

The target in the next assay is FXa (Homo sapiens (Human), UniProt P00742). In words: Determination of related protease inhibition: FXa (fluorogenic substrate at Km). Conditions: 25° C. The procedure: as §1, §2
A further assay concerns the target Thrombin (Homo sapiens (Human), UniProt P00734). Briefly: Determination of related protease inhibition: Thrombin (fluorogenic substrate at Km). The conditions noted are these: 25° C. The procedure: as §1, §2

FXa, sequence (P00742 235-488): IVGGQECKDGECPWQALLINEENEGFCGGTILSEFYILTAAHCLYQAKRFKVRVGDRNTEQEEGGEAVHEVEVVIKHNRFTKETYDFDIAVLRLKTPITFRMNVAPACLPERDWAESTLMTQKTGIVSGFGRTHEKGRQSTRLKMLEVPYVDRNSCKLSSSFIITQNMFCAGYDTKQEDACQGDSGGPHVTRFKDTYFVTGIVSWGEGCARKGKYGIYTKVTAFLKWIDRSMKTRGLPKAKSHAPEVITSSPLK
FXa, sequence (P00742 41-179 partner): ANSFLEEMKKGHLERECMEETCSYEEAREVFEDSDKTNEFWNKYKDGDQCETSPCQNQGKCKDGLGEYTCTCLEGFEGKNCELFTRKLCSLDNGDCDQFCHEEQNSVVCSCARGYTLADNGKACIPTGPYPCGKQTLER
Plasma Kallikrein, sequence (P03952 391-638): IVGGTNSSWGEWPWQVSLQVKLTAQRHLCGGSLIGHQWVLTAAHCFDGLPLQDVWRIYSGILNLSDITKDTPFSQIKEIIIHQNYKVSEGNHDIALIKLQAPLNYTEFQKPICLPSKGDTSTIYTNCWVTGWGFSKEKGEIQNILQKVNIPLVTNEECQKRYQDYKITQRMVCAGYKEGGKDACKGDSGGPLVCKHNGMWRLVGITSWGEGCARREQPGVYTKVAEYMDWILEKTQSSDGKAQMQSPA
Plasma Kallikrein, sequence (P03952 20-390 partner): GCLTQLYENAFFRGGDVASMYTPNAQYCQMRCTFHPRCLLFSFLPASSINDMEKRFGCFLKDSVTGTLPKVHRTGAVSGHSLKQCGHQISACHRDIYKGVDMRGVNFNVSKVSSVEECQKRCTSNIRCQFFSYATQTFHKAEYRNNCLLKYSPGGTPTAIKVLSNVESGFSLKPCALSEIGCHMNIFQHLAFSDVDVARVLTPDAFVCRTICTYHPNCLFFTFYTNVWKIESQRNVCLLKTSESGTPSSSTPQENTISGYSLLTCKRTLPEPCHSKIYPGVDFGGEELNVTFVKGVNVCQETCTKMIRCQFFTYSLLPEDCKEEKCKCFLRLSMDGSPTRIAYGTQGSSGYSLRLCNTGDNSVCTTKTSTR
KLK1, sequence (P06870 25-262): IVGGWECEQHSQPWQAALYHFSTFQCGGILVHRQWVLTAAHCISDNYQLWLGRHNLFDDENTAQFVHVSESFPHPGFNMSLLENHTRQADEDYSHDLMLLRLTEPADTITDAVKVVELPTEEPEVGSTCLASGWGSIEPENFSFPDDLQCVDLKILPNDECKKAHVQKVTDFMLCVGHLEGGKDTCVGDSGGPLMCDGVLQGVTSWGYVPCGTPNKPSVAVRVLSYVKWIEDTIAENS
Human Factor XIIa, sequence (P00748 373-615): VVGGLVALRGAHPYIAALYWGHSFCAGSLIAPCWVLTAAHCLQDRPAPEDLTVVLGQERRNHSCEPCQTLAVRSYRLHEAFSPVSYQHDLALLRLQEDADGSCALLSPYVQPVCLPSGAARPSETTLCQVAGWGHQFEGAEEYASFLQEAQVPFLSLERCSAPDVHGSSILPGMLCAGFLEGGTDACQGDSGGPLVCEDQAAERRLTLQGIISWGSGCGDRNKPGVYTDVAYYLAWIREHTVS

Usually IC50 stands for the concentration that gives 50% inhibition. As for `Nc1nccc2c(NCc3ccc(OCC4CCn5ccnc5C4)nc3)cccc12` (single isomer, unassigned) [Example 1030, (S*)-N5-((6-((5,6,7,8-tetrahydroimidazo[1,2-a]pyridin-7-yl)methoxy)pyridin-3-yl)methyl)isoquinoline-1,5-diamine], the IC50 was in the range of 0.3 to 1 µM against Human Factor XIIa; 10 to 40 µM on Plasma Kallikrein; 3 to 10 µM at KLK1; 10 to 40 µM against FXa; 10 to 40 µM against Thrombin.
On to `Nc1nccc2cc(NCc3ccnc(OCC4CCn5ccnc5C4)c3)ccc12` (single isomer, unassigned) [Example 4267, 6-N-({2-[(7S*)-5H,6H,7H,8H-imidazo[1,2-a]pyridin-7-ylmethoxy]pyridin-4-yl}methyl)isoquinoline-1,6-diamine], for which the concentration for half-maximal inhibition (IC50) on Human Factor XIIa lay in the range of 0.01 to 0.1 µM; at Plasma Kallikrein, 3 to 10 µM; at KLK1 it was 0.3 to 1 µM; against FXa, 0.1 to 0.3 µM; on Thrombin it was 0.3 to 1 µM.
Take `CN1CCC(CNc2ccc(CNc3ccc4c(N)nccc4c3)cn2)CC1` [Example 1033, N6-((6-(((1-methylpiperidin-4-yl)methyl)amino)pyridin-3-yl)methyl)isoquinoline-1,6-diamine]: the half-inhibitory concentration (IC50) on Human Factor XIIa fell in the range of 0.01 to 0.1 µM; at Plasma Kallikrein it was 1 to 3 µM; at KLK1, 0.3 to 1 µM; on FXa, 3 to 10 µM; at Thrombin, 3 to 10 µM.
Turning to `Nc1nccc2c(NCc3ccc(CN4CCOCC4)cc3F)cccc12` [Example 1034, 5-N-{[2-fluoro-4-(morpholin-4-ylmethyl)phenyl]methyl}isoquinoline-1,5-diamine], the IC50 at Human Factor XIIa was 10 to 40 µM; at Plasma Kallikrein it was greater than 40 µM; at KLK1 it was 10 to 40 µM; on FXa, greater than 40 µM; against Thrombin, greater than 40 µM.
In the case of `Cn1ccnc1CCCOc1ncc(CNc2cccc3c(N)nccc23)cn1` [Example 1035, N5-((2-(3-(1-methyl-1H-imidazol-2-yl)propoxy)pyrimidin-5-yl)methyl)isoquinoline-1,5-diamine], the concentration for half-maximal inhibition (IC50) against Human Factor XIIa is 3 to 10 µM; at Plasma Kallikrein, greater than 40 µM; at KLK1, 10 to 40 µM; on FXa, greater than 40 µM; at Thrombin, greater than 40 µM.
On to `CC(C)N1CC2(CN(Cc3ccc(CNc4cccc5c(N)nccc45)c(F)c3)C2)C1` [Example 1036, N5-(2-fluoro-4-((6-isopropyl-2,6-diazaspiro[3.3]heptan-2-yl)methyl)benzyl)isoquinoline-1,5-diamine], for which the half-inhibitory concentration (IC50) against Human Factor XIIa is 0.3 to 1 µM; at Plasma Kallikrein it was 10 to 40 µM; on KLK1, 10 to 40 µM; against FXa, greater than 40 µM; at Thrombin it was greater than 40 µM.
In the case of `CN1CCC(CNc2ccc(CNc3ccnc(N)c3)cn2)CC1` [Example 1096, N4-((6-(((1-methylpiperidin-4-yl)methyl)amino)pyridin-3-yl)methyl)pyridine-2,4-diamine], the IC50 on Human Factor XIIa was 3 to 10 µM; on Plasma Kallikrein, greater than 40 µM; against KLK1, 10 to 40 µM; at FXa, 10 to 40 µM; on Thrombin it was 10 to 40 µM.
On to `Cc1cc2c(NCc3ccc(NCC4CCN(C)CC4)nc3)ccnc2[nH]1` [Example 1202, 2-Methyl-N-((6-(((1-methylpiperidin-4-yl)methyl)amino)pyridin-3-yl)methyl)-1H-pyrrolo[2,3-b]pyridin-4-amine], for which the IC50 at Human Factor XIIa is 0.1 to 0.3 µM; on Plasma Kallikrein, greater than 40 µM; on KLK1, greater than 40 µM; on FXa, 10 to 40 µM; against Thrombin, 10 to 40 µM.
In the case of `CN1CCC(CNc2ccc(CNc3ccc4cnccc4c3Cl)cn2)CC1` [Example 1209, 5-chloro-N-((6-(((1-methylpiperidin-4-yl)methyl)amino)pyridin-3-yl)methyl)isoquinolin-6-amine], the IC50 against Human Factor XIIa is 3 to 10 µM; on Plasma Kallikrein, greater than 40 µM; on KLK1 it was greater than 40 µM; against FXa, greater than 40 µM; on Thrombin, greater than 40 µM.
`CN1CCC(CNc2ccc(CNc3cncc4[nH]ccc34)cn2)CC1` [Example 1213, N-((6-(((1-methylpiperidin-4-yl)methyl)amino)pyridin-3-yl)methyl)-1H-pyrrolo[2,3-c]pyridin-4-amine]: the IC50 was 3 to 10 µM against Human Factor XIIa; 10 to 40 µM on Plasma Kallikrein; greater than 100 µM at KLK1; greater than 40 µM at FXa; 10 to 40 µM at Thrombin.
In the case of `CN1CCC(CNc2ccc(CNc3ccc4cnccc4c3F)cn2)CC1` [Example 1224, 5-fluoro-N-((6-(((1-methylpiperidin-4-yl)methyl)amino)pyridin-3-yl)methyl)isoquinolin-6-amine], the IC50 is 3 to 10 µM on Human Factor XIIa; greater than 40 µM at Plasma Kallikrein; greater than 40 µM against KLK1; greater than 40 µM at FXa; greater than 100 µM against Thrombin.
As for `COc1nnc2n1CCN(c1ccc(CNc3cccc4c(N)nccc34)cn1)C2` [Example 1250, N5-((6-(3-methoxy-5,6-dihydro-[1,2,4]triazolo[4,3-a]pyrazin-7(8H)-yl)pyridin-3-yl)methyl)isoquinoline-1,5-diamine], the IC50 against Human Factor XIIa is 1 to 3 µM; on Plasma Kallikrein, greater than 40 µM; at KLK1, 3 to 10 µM; on FXa it was greater than 40 µM; against Thrombin, greater than 40 µM.
Consider `CN1CCC(CNc2ccc(CNc3cncc4[nH]c(Cl)cc34)cn2)CC1` [Example 1251, 2-Chloro-N-((6-(((1-methylpiperidin-4-yl)methyl)amino)pyridin-3-yl)methyl)-1H-pyrrolo[2,3-c]pyridin-4-amine], for which the 50% inhibitory concentration (IC50) on Human Factor XIIa fell in the range of 0.01 to 0.1 µM; on Plasma Kallikrein, 10 to 40 µM; against KLK1, 10 to 40 µM; against FXa it was 1 to 3 µM; at Thrombin, 3 to 10 µM.
Turning to `Nc1nccc2c(NCc3ccc(N4CCn5c(nnc5C(F)(F)F)C4)nc3)cccc12` [Example 1275, N5-((6-(3-(trifluoromethyl)-5,6-dihydro-[1,2,4]triazolo[4,3-a]pyrazin-7(8H)-yl)pyridin-3-yl)methyl)isoquinoline-1,5-diamine], the IC50 is 0.3 to 1 µM on Human Factor XIIa; greater than 40 µM on Plasma Kallikrein; 3 to 10 µM against KLK1; greater than 40 µM at FXa; greater than 40 µM against Thrombin.
On to `Cc1nnc2n1CCN(c1ccc(CNc3cccc4c(N)nccc34)cn1)C2` [Example 1279, N5-((6-(3-methyl-5,6-dihydro-[1,2,4]triazolo[4,3-a]pyrazin-7(8H)-yl)pyridin-3-yl)methyl)isoquinoline-1,5-diamine], for which the IC50 against Human Factor XIIa was 0.1 to 0.3 µM; on Plasma Kallikrein, greater than 40 µM; against KLK1, 3 to 10 µM; against FXa it was greater than 40 µM; against Thrombin, greater than 40 µM.
In the case of `CN1CCN(CCc2ccc(CNc3ccc4c(N)nccc4c3)c(F)c2)CC1` [Example 2181, 6-N-({2-fluoro-4-[2-(4-methylpiperazin-1-yl)ethyl]phenyl}methyl)isoquinoline-1,6-diamine], the 50% inhibitory concentration (IC50) lay in the range of 0.3 to 1 µM against Human Factor XIIa; 10 to 40 µM on Plasma Kallikrein; 0.3 to 1 µM at KLK1; 10 to 40 µM against FXa; 3 to 10 µM at Thrombin.
On to `CN1CCN(CCc2ccc(CNc3cccc4c(N)nccc34)c(F)c2)CC1` [Example 2182, 5-N-({2-fluoro-4-[2-(4-methylpiperazin-1-yl)ethyl]phenyl}methyl)isoquinoline-1,5-diamine], for which the half-inhibitory concentration (IC50) was 0.3 to 1 µM at Human Factor XIIa; greater than 40 µM on Plasma Kallikrein; 10 to 40 µM on KLK1; greater than 40 µM against FXa; greater than 40 µM against Thrombin.
With `Nc1nccc2c(NCc3ccc(CCN4CCOCC4)cc3F)cccc12` [Example 2183, N5-[[2-fluoro-4-(2-morpholinoethyl)phenyl]methyl]isoquinoline-1,5-diamine], the half-maximal inhibitory concentration (IC50) was 0.3 to 1 µM on Human Factor XIIa; greater than 40 µM at Plasma Kallikrein; 10 to 40 µM at KLK1; greater than 40 µM against FXa; greater than 40 µM against Thrombin.
For the molecule `CN1CCN(CCc2ccc(CNc3ccc4c(N)ncc(Cl)c4c3)c(F)c2)CC1` [Example 2184, 4-Chloro-N6-[[2-fluoro-4-[2-(4-methylpiperazin-1-yl)ethyl]phenyl]methyl]isoquinoline-1,6-diamine], the concentration for half-maximal inhibition (IC50) against Human Factor XIIa is 3 to 10 µM; at Plasma Kallikrein, greater than 40 µM; on KLK1, 3 to 10 µM; on FXa it was greater than 40 µM; against Thrombin, greater than 40 µM.
In the case of `CN1CCC(COc2cc(CNc3ccc4c(N)nccc4c3)cc(C(F)(F)F)n2)CC1` [Example 4265, N6-((2-((1-methylpiperidin-4-yl)methoxy)-6-(trifluoromethyl)pyridin-4-yl)methyl)isoquinoline-1,6-diamine], the IC50 against Human Factor XIIa was in the range of 0.1 to 0.3 µM; against KLK1 it was 0.3 to 1 µM; at FXa, 1 to 3 µM; on Thrombin, 0.3 to 1 µM.
